Reference: paper PMC3740496, “Synthesis and biological activities of the respiratory chain inhibitor aurachin D and new ring versus chain analogues” (Beilstein Journal of Organic Chemistry, 2013)
≈ marks a conversion by molar mass, not a printed value.

How the values were obtained:
Format in all cases: cell-based
[1] = test system: Trypanosoma brucei gambiense strain Feo bloodstream forms; assay: Antitrypanosomal assay (resazurin); details: for IC50: Trypanosoma brucei, GAMBIENSE, 72 h incubation, read-out: IC50 T. brucei gambiense
Description: page 10: independent experiments. Chloroquine diphosphate (Sigma–Aldrich) was used as antimalarial drug control. Antitrypanosomal activities: Bloodstream forms of Trypanosoma brucei gambiense strain Feo were cultured in HMI9 medium supplemented with 10% FCS at 37 °C under an atmosphere of 5% CO2. Antitrypanosomal assays were performed as previously described. In all experiments, log-phage cell cultures were harvested by centrifugation at 3,000g and immediately used. Drug assays were based on the conversion of a redox-sensitive dye (resazurin) to a fluorescent product by viable cells. Drug stock solutions were prepared in pure DMSO. […] After a 72 h incubation, resazurin solution was added in each well at the final concentration of 45 µM. Fluorescence was measured at 530 nm excitation and 590 nm emission wavelengths after a further 4 h incubation. Each inhibitor concentration was tested in triplicate. The percentage of inhibition of parasite growth rate was calculated by comparing the fluorescence of parasites maintained in the presence of drug to that in the absence of drug. DMSO was used as a control. IC50s were determined from the dose–response curves with drug concentrations ranging from 100 µM to 50 nM. Pentamidine was used as antitrypanosomal drug control. MIC determination: Indicator strains were obtained from the German Collection of Microorganisms and Cell Cultures (Deutsche Sammlung für Mikroorganismen und Zellkulturen, DSMZ) or were part of our internal strain collection. All microorganisms were handled under standard conditions recommended by the depositor. Overnight S10

Escherichia coli (TolC) = assay: MIC determination; details: read-out: MIC50 Escherichia coli (TolC)
Description: (§1) MIC determination: Indicator strains were obtained from the German Collection of Microorganisms and Cell Cultures (Deutsche Sammlung für Mikroorganismen und Zellkulturen, DSMZ) or were part of our internal strain collection. All microorganisms were handled under standard conditions recommended by the depositor. Overnight […]
(§2) cultures of bacteria were prepared in EBS medium (0.5% casein peptone, 0.5% proteose peptone, 0.1% meat peptone, 0.1% yeast extract; pH 7.0). Yeasts and molds were grown in Myc medium (1% phytone peptone, 1% glucose, 50 mM
(§3) HEPES, pH 7.0). The overnight cultures of microorganisms were diluted to OD600 0.01 (bacteria) or 0.05 (yeasts/molds) in the respective growth medium. Serial dilutions of compounds were prepared as duplicates in sterile 96-well plates. The cell suspension was added and microorganisms were grown overnight on a microplate shaker (900 rpm, 30 °C or 37 °C). Growth inhibition was assessed by measuring the OD600 on a plate reader (POLARstar, BMG Labtech). MIC50 values were determined as averages relative to respective control samples by sigmoidal curve fitting. […]

Bacillus subtilis DSM10 = assay: MIC determination; details: duplicate, mean ±SD; for MIC50: Bacillus subtilis, DSM10
Description: as §1, §2, §3

[2] = test system: Klebsiella pneumoniae DSM30104; assay: MIC determination; details: duplicate, mean ±SD
Description: as §1, §2, §3

[3] = test system: Staphylococcus aureus Newman (MSSA); assay: MIC determination; details: duplicate, mean ±SD
Description: as §1, §2, §3

[4] = test system: Staphylococcus aureus DSM11822 (MRSA); assay: MIC determination; details: duplicate, mean ±SD
Description: as §1, §2, §3

[5] = test system: Escherichia coli DH5α (wt); assay: MIC determination; details: duplicate, mean ±SD
Description: as §1, §2, §3

Micrococcus luteus = assay: MIC determination; details: duplicate, mean ±SD
Description: as §1, §2, §3

[6] = test system: K562 myelogenous leukemia cells; assay: Cytotoxicity, growth inhibition (MTT); details: Homo sapiens, K562, 120 h; 5 days treatment; triplicate, mean ±SD; read-out: IC50: half inhibitory concentration, K562
Description: (§4) The cytotoxic activity of aurachin D (4) and analogues 9–11 and 17–19 was evaluated in growth inhibition experiments on mammalian cell lines (Table 2). After 5 days treatment, half inhibitory concentrations (IC50) were determined for human HCT-116 colon carcinoma and human K562 myelogenous leukemia cells. […]
(§5) was further incubated for 1.5 h. The medium was then discarded and 100 µL 2-propanol/10 N HCl (250:1) was added in order to dissolve formazan granules. The absorbance at 570 nm was measured using a microplate reader (EL808, Bio-Tek Instruments Inc.) and cell viability was expressed as a percentage relative to the respective solvent control. […]

[7] = test system: HCT-116 human colon carcinoma cells; assay: Cytotoxicity, growth inhibition (MTT); details: Homo sapiens, HCT-116, 120 h, read-out: IC50: half inhibitory concentration, HCT-116
Description: as §4, §5

| SMILES | IC50 [1] | antitrypanosomal selectivity index ([1]; Vero cytotoxic concentration / concentration active on T. brucei gambiense) | MIC50 (Escherichia coli (TolC)) | MIC50 (Bacillus subtilis DSM10) | MIC50 [2] | MIC50 [3] | MIC50 [4] | MIC50 [5] | MIC50 (Micrococcus luteus) | IC50 [6] | IC50 [7] | MIC50 Bacillus subtilis DSM10 (Bacillus subtilis DSM10) |
| --- | --- | --- | --- | --- | --- | --- | --- | --- | --- | --- | --- | --- |
| CC(C)=CCC/C(C)=C/CC/C(C)=C/Cc1c(C)[nH]c2ccccc2c1=O [compound 4, aurachin D] | 0.4 µg/mL (≈ 1.1 µM) | 35 | 8.36 ± 1 µg/mL (≈ 23 µM) | < 0.1 µg/mL | > 64 µg/mL | 5.46 ± 1.05 µg/mL (≈ 15 µM) | 2.1 ± 0.19 µg/mL (≈ 5.78 µM) | > 64 µg/mL | 1.47 ± 0.12 µg/mL (≈ 4.04 µM) | 0.65 ± 0.16 µg/mL (≈ 1.79 µM) | 2.23 ± 0.76 µg/mL (≈ 6.13 µM) |  |
| CC(C)=CCC/C(C)=C/Cc1c(C)[nH]c2ccccc2c1=O [compound 9] | 1.5 µg/mL (≈ 5.08 µM) |  | 1.41 ± 0.45 µg/mL (≈ 4.77 µM) | < 0.1 µg/mL | > 64 µg/mL | 3.96 ± 0.49 µg/mL (≈ 13.4 µM) | 4.5 ± 0.74 µg/mL (≈ 15.2 µM) | > 64 µg/mL | 2.59 ± 0.34 µg/mL (≈ 8.77 µM) | 1.5 ± 0.31 µg/mL (≈ 5.08 µM) | 2.52 ± 0.48 µg/mL (≈ 8.53 µM) |  |
| CC(C)=CCCC(C)=CCCC(C)=CCc1c(C)[nH]c2ccc3ccccc3c2c1=O [compound 17] | 0.8 µg/mL (≈ 1.93 µM) |  | > 64 µg/mL | > 64 µg/mL | > 64 µg/mL | > 64 µg/mL | > 64 µg/mL | > 64 µg/mL | > 64 µg/mL | ~10 µg/mL (≈ 24.2 µM) | > 10 µg/mL |  |
| COc1ccc2[nH]c(C)c(CC=C(C)CCC=C(C)CCC=C(C)C)c(=O)c2c1 [compound 18] | 1.6 µg/mL (≈ 4.07 µM) |  | > 64 µg/mL | 6.75 ± 0.6 µg/mL (≈ 17.2 µM) | > 64 µg/mL | > 64 µg/mL | > 64 µg/mL | > 64 µg/mL | 49.2 ± 3.94 µg/mL (≈ 125 µM) | 1.15 ± 0.22 µg/mL (≈ 2.92 µM) | 1.64 ± 0.47 µg/mL (≈ 4.17 µM) | significant growth inhibitory effect |
| CC(C)=CCCC(C)=CCCC(C)=CCc1c(C)[nH]c2cc3c(cc2c1=O)OCO3 [compound 19] | > 10 µg/mL |  | > 64 µg/mL | 4.66 ± 0.5 µg/mL (≈ 11.4 µM) | > 64 µg/mL | 34.6 ± 5.13 µg/mL (≈ 84.8 µM) | > 64 µg/mL | > 64 µg/mL | > 64 µg/mL | > 10 µg/mL | > 10 µg/mL | significant growth inhibitory effect |
